Reference: patent US20220259164A1, “USE OF AMINOTHIOL COMPOUNDS AS CEREBRAL NERVE OR HEART PROTECTIVE AGENT” (SHANGHAI KECHOW PHARMA, INC., priority 2019, published 2022)
Where a SMILES comes first, the peptide text is derived from it. [ ]: non-standard residue; d: D form. NMeC = CN[C@@H](CS)C(=O)O

How the values were obtained:
[1] = test system: rat myocardial infarction model (coronary ligation 30 min, reperfusion); experiment: Myocardial infarction model: myocardial infarction range (TTC staining); type: in vivo; conditions: for Infarction range (%): x ± s, n = 10; for Improvement rate (%) of myocardial infarction range: compared with model group
Procedure: 1. The rats were grouped and administered according to the following methods (2) Compound B (i.v.) at 100 mg/kg (3) Compound A (i.v.) at 100 mg/kg (4) Compound A (oral) at 500 mg/kg (5) Isosorbide mononitrate injection (i.v.) at 1 mg/kg (equivalent to clinical equivalent dose). There were 10 rats in each group, and the rats were administered intravenously immediately after 30 min of ischemia and reperfusion, i.v. 10% 1 min+i.v. drip 90% 30 min. The administration volume was 2 ml/rat. Compound A (oral) at 500 mg/kg was administered intragastrically 2 h after reperfusion when the animal was awake, and the administration volume was 10 ml/kg. Note: Compounds A and B used in this example were in the form of hydrochloride salts thereof. Given intraperitoneal injection of 3% sodium pentobarbital at 60 mg/kg for general anesthesia, the rats were fixed on an operating table in the supine position. The surgical field of the anterolateral chest was depilated and routinely disinfected. The skin and muscular layer were cut open, purse-string suture was performed on the muscular layer, the chest was opened on the left at the fourth intercostal space, and the heart was pulled out with a ring-shaped retractor. At the position of the anterior descending coronary artery 3-4 mm below the left atrial appendage, a 6/0 damage-free silk thread was threaded, and a nylon thread with a diameter of 1.6 mm was juxtaposed and ligated together with the anterior descending coronary artery, while the other end was left outside the body for later use. The heart was placed back into the chest cavity, the air in the chest cavity was emptied, and the chest cavity was closed. 30 min after ligation, the nylon thread was carefully removed for reperfusion. Compared with the normal lead II electrocardiogram (ECG-II), ST segment elevation in ECG-II by 0.1 mV or more 30 min after coronary artery ligation was regarded as successful ischemia.

[2] = test system: bleomycin (BLM)-induced scleroderma mouse model; experiment: Dermal fibrosis in bleomycin (BLM)-induced scleroderma mouse model (H-E staining); type: in vivo, mice; conditions: compound A (hydrochloride) 600 mg/kg/d by gavage or compound B (trifluoroacetate) 200 mg/kg/d i.p., 28 days with BLM; compared with BLM model group
Text: (§1) Materials: C57BL/6 female mice, weighing 20-25 g, were purchased from Shanghai SLAC Laboratory Animal Co., Ltd. Using a random number table method, 24 mice were divided into a blank control group (1), a scleroderma model group (2), a scleroderma+compound A treatment group (3), and a scleroderma+compound B treatment group (4), with 6 mice in each group. Bleomycin (BLM) was purchased from Sigma. An H-E staining kit was purchased from Beijing Solarbio Science & Technology Co., Ltd. Compound A used in this example was in the form of a hydrochloride thereof, and compound B was in the form of a trifluoroacetate thereof.
Method: The intended injection site (area 1 cm^2) of the mice was shaved using an electric shaver. The mice in groups (1) and (2) were intraperitoneally injected with PBS, the mice in group (3) were given compound A (600 mg/kg/d, dissolved in PBS) by gavage, and the mice in group (4) were intraperitoneally injected with compound B (200 mg/kg/d, dissolved in PBS). Immediately thereafter, the mice in group (1) were injected with PBS subcutaneously on the back, and the mice in groups (2) and (4) were injected with BLM (1 mg/ml, dissolved in PBS) subcutaneously on the back; and 15 min later, the mice in group (3) were injected with BLM (1 mg/ml, dissolved in PBS) subcutaneously on the back. After 28 days of continuous administration once a day, the animals were sacrificed on day 29 by cervical dislocation. Conventional iodine tincture was used to disinfect the back skin of the mice, and a local diseased skin tissue was surgically cut, fixed in 4% paraformaldehyde, embedded in paraffin, sectioned, and analyzed by H-E staining.

[3] = test system: bleomycin (BLM)-induced scleroderma mouse model; experiment: Hydroxyproline level in skin lesion, BLM-induced scleroderma mouse model; type: in vivo, mice; conditions: compound A (hydrochloride) 600 mg/kg/d by gavage or compound B (trifluoroacetate) 200 mg/kg/d i.p., 28 days with BLM
Text: as §1
Method: The intended injection site (area 1 cm^2) of the mice was shaved using an electric shaver. […] Conventional iodine tincture was used to disinfect the back skin of the mice, and a local diseased skin tissue was surgically cut, fixed in 4% paraformaldehyde, embedded in paraffin, sectioned, and analyzed by H-E staining. […]
Method: Part of the skin lesion tissue of the mice was taken, and the contents of hydroxyproline and hydrogen peroxide in the skin lesion region were detected according to the requirements in the kit instructions.

[4] = test system: radiation intestinal injury in C57 male mice; experiment: Protective effect on radiation intestinal injury (HE staining of small intestine); type: in vivo; conditions: 517 mpk i.p. 30 min before 16 Gy abdominal irradiation; fifth day
Procedure: C57 male mice were randomly divided into 4 groups, namely a blank control group, an irradiation group, a compound B (TFA) irradiation group, and an AMI irradiation group, respectively. The mode of administration for each group was an intraperitoneal injection, 30 min before irradiation. The dosage of administration was 517 mpk, and the abdominal irradiation dose was 16 Gy. On the fifth day, the small intestine tissue was taken for HE staining.

[5] = test system: radiation lung injury in C57 male mice; experiment: Protective effect on radiation lung injury (HE staining of lung); type: in vivo; conditions: 517 mpk i.p. 30 min before 17 Gy right lung irradiation; months 2, 4, 6
Procedure: C57 male mice were randomly divided into 4 groups, namely a blank control group, an irradiation group, a compound B (TFA) irradiation group, and an AMI irradiation group, respectively. The mode of administration for each group was an intraperitoneal injection, 30 min before irradiation. The dosage of administration was 517 mpk, and the irradiation dose to the right lung was 17 Gy. […] Lung tissues were taken at months 2, 4, and 6 for HE staining

[6] = test system: radiation-induced hematopoietic system injury in C57 male mice; experiment: Protective effect on radiation-induced hematopoietic system injury (peripheral blood indicators); type: in vivo; conditions: 517 mpk i.p. 30 min before 4 Gy whole body irradiation; day 15
Procedure: C57 male mice were randomly divided into 6 groups, namely a blank control group, an irradiation group, a compound B (TFA) group, an AMI group, a compound B (TFA) irradiation group, and an AMI irradiation group, respectively. The mode of administration for each group was an intraperitoneal injection, 30 min before irradiation. The dosage of administration was 517 mpk, and the whole body irradiation dose was 4 Gy. On day 15, samples were taken for detecting peripheral blood indicators.

CNC(=O)[C@H](CS)NC(=O)[C@H](CS)NC [Compound A, (R)-3-mercapto-N—((R)-3-mercapto-1-(methylamino)-1-oxoprop-2-yl)-2-(methylamino)propionamide] (H-[NMeC]-Cys-NHMe)
Infarction range (%) ([1]; compound A (hydrochloride) i.v. 100 mg/kg after 30 min ischemia and reperfusion): 30.5 ± 11 % | Improvement rate (%) of myocardial infarction range ([1]; compound A (hydrochloride) i.v. 100 mg/kg): 24.5% | Infarction range (%) ([1]; compound A (hydrochloride) oral 500 mg/kg 2 h after reperfusion): 28.9 ± 12.2 % | Improvement rate (%) of myocardial infarction range ([1]; compound A (hydrochloride) oral 500 mg/kg): 28.5% | Collagen in the dermis and fat layer (H-E staining) [2]: the collagen thickness in the dermis was significantly reduced and the fat layer was significantly thickened | Thickness of the dermis in the skin lesion area [2]: could better reduce the thickness of the dermis at the skin lesion site | Level of hydroxyproline in the skin lesion site [3]: down-regulated

CNC(=O)[C@H](CS)NC(=O)[C@H](CS)NC(=O)[C@H](CS)NC [Compound B, (R)-3-mercapto-N—((R)-3-mercapto-1-(((R)-3-mercapto-1-(methylamino)-1-oxoprop-2-yl)amino)-1-oxoprop-2-yl)-2-(methylamino)propionamide] (H-[NMeC]-Cys-Cys-NHMe)
Changes in the intestinal villi structure (HE staining) [4]: milder than that in the irradiation group | Inflammatory cell infiltration / radiation pneumonitis in lung (HE staining) [5]: could partially relieve the inflammatory cell infiltration and reduce the occurrence of radiation pneumonitis | LY % and NE % in the peripheral blood (abnormal differentiation) [6]: could alleviate this abnormal differentiation | Numbers of WBC, RBC and PLT in the peripheral blood [6]: could increase the numbers of such cells after irradiation | Infarction range (%) ([1]; compound B (hydrochloride) i.v. 100 mg/kg after 30 min ischemia and reperfusion): 30.2 ± 8.2 % | Improvement rate (%) of myocardial infarction range ([1]; compound B (hydrochloride) i.v. 100 mg/kg): 25.2% | Collagen in the dermis and fat layer (H-E staining) [2]: collagen proliferation in the dermis in the compound B treatment group was improved | Thickness of the dermis in the skin lesion area [2]: reduced (p<0.01) | Level of hydroxyproline in the skin lesion site [3]: down-regulated
